Laboratory results from PMC6315395, “New Lipophenol Antioxidants Reduce Oxidative Damage in Retina Pigment Epithelial Cells” (Antioxidants, 2018).
Blank lines part the entries; values can stand above or below the compound they belong to.

What was measured:
Abca4 −/− Rdh8 −/− mice = test system: Abca4 −/− Rdh8 −/− mice; parameters: method as in PMID 27992460; settings: treated orally for three months; cited from earlier work
[1] = test system: porcine primary RPE cells; parameters: method as in PMID 27992460; settings: at 20 µM; cited from earlier work
RPE cells = settings: 100 µM; cited from earlier work
[2] = test system: Balb-c male mice photoreceptors; parameters: method as in PMID 29541735; settings: cited from earlier work
ARPE-19 cells [3] = experiment: Cytotoxicity of lipophenols (MTT cell viability, 24 h); type: cell-based, human; settings: for Toxicity in ARPE-19 cells (in words): tested 0–160 µM
Procedure: (§1) Cell viability was determined by MTT colorimetric assay. The cells were incubated for 2 h with MTT reagent (0.5 mg/mL). During this incubation time, dehydrogenases of the living cells reduce the MTT to insoluble purple formazan. The absorbance at 570 nm and 655 nm of individual wells of the cell was measured using a microplate reader (BioRad 550, USA). […] The percentage of the viable cells was calculated as [(OD570 sample − OD655 sample)/(OD570 control − OD655 control)] × 100%.
(§2) ARPE-19 cells were plated into 96-well plates (4 × 10^4 cells/well) and cultured for 24 h to reach confluence before lipophenol treatment. The cell cultures were treated with serum free medium containing the lipophenols at different concentrations (0–160 µM) for 24 h. Control cells were incubated with DMSO (0.2%). The viability of the cells was determined using MTT colorimetric assay as described above and expressed in percentage of viable cells normalized with control conditions in the absence of lipophenols. When a dose-dependent toxicity was observed, CC50 was calculated.

[4] = as above; type: cell-based, human; settings: human, ARPE-19 cells; for CC50 at 24 h: serum free medium, 0–160 µM, MTT, mean ± SD, n ≥ 3, read-out: ARPE-19 CC50 (concentration of lipophenol killing 50% of ARPE-19 cells)
Procedure: as §1, §2

ARPE-19 cells [5] = experiment: Protection against ROS production (DCFDA probe, H2O2 stress); type: cell-based, human; settings: for IC50: H2O2 600 µM for 4 h, DCFDA, mean ± SD, n ≥ 3, read-out: ROS production IC50 (concentration needed to inhibit 50% of the ROS induced by H2O2)
Procedure: ROS activity was measured in ARPE-19 cells with dichlorofluorescein diacetate (DCFDA) reagent. DCFDA is deacetylated by cellular esterases to dichlorofluorescein (DCFH), which can then be oxidized by ROS into the fluorophore 2′,7′–dichlorofluorescein (DCF). ARPE-19 cells were plated into black, optically clear bottom 96-well plates (4 × 10^4 cells/well) and cultured for 24 h to reach confluence before the drug treatment. The cell cultures were incubated with 2 µM of DCFDA for 45 min in DMEM/F12 medium without phenol red + 1% FBS. The cells were rinsed and incubated with the medium containing lipophenols at different concentrations (0–80 µM) for 1 h. Then, H2O2 was added to a final concentration of 600 µM for 4 h, followed by the measurement of DCF production by fluorescence spectroscopy with excitation wavelength at 485 nm and emission wavelength at 535 nm. […] Control cells were incubated with DMSO (0.2%) ± DCFDA ± H2O2. The percentage of ROS produced was calculated as [(fluorescence of sample)/(fluorescence of control)] × 100%. The results are expressed in percentage of ROS produced normalized with control conditions in the absence of lipophenol and presence of stressor. When a dose-dependent inhibition was observed, IC50 was calculated.

ARPE-19 cells [6] = experiment: Protection against photo-oxidized A2E toxicity (MTT cell viability); type: cell-based, human; settings: for IC50: 1 h pre-treatment, A2E 20 µM 6 h, blue light 30 min, mean ± SD, n ≥ 3, read-out: Protection against A2E toxicity IC50 (concentration needed to inhibit 50% of the toxicity induced by photo-oxidized A2E); for Decrease of the toxic effect of A2E: at 8 µM; for Cells protected from photo-oxidized A2E: at higher concentrations; for Maximum cell viability under photo-oxidized A2E: between 20 and 40 µM; for Potency against photo-oxidized A2E relative to natural quercetin: ratio of IC50
Procedure: as §1
ARPE-19 cells were plated into 96-well plates (4 × 10^4 cells/well) and cultured for 24 h to reach confluence before lipophenol treatment. The cell cultures were treated with serum free DMEM/F12 medium without phenol red containing lipophenols at different concentrations (0–80 µM) for 1 h. Then A2E was added to a final concentration of 20 µM for 6 h before rinsing with medium. Control cells were incubated with DMSO (0.2%) with or without A2E. The cells were exposed to intense blue light (4600 LUX) for 30 min to induce phototoxicity of A2E and incubated at 37 °C. The cell viability was determined 16–20 h later using a MTT colorimetric assay. Results are expressed in percentage of viable cells normalized with control conditions in the absence of lipophenols and stressor. When a dose-dependent efficiency was observed, IC50 was calculated.

ARPE-19 cells [7] = test system: ARPE-19 cells; parameters: method as in PMID 27659166; settings: 60 µM, cells treated twice for 3 days before A2E stress; cited from earlier work
[8] = Homo sapiens, ARPE-19, 1 h pre-incubation

Compound: CC(/C=C/C=C(C)/C=C/C(=O)O)=C\C=C\C=C(C)\C=C\C=C(C)\C=C\C(=O)O (stereo in doubt) [Norbixin]
Effect on A2E in mice (in words) (Abca4 −/− Rdh8 −/− mice): able to reduce A2E
Protection against A2E illuminated [1]: 90–100%

Compound: O=c1c(O[C@@H]2OC[C@H](O)[C@H](O)[C@H]2O)c(-c2ccc(O)c(O)c2)oc2cc(O)cc(O)c12 [3-quercetin glycoside, Quercetin-3-O-α-L-arabinopyranoside]
Cell viability of RPE cells (RPE cells): ~ 90%
Protection of photoreceptors against blue light damages (in words) [2]: protect

Compound: Oc1cc(O)c2c(c1)O[C@H](c1ccc(O)c(O)c1)[C@@H](O)C2 [(+)-catechin, reference compound]
Toxicity in ARPE-19 cells (in words) (ARPE-19 cells [3]; 24 h): no apparent toxicity
CC50 at 24 h [4]: > 160 µM
IC50 (ARPE-19 cells [5]; [8]): 5.93 ± 0.06 µM

Compound: CCCCC/C=C\C/C=C\CCCCCCCC(=O)O[C@H]1Cc2c(O)cc(O)cc2O[C@@H]1c1ccc(O)c(O)c1 [Cat-3-LA (9), catechin-3-LA]
Concentration from which cytotoxicity on ARPE-19 starts (ARPE-19 cells [3]; 24 h, MTT): ≥ 80 µM
CC50 at 24 h [4]: 149 ± 6.61 µM
IC50 (ARPE-19 cells [5]; [8]): 10.6 ± 4.41 µM

Compound: CCCCC/C=C\C/C=C\CCCCCCCC(=O)Oc1cc(O)cc(O)c1 [Phloro-LA (3), Phloroglucinol-LA]
CC50 at 24 h [4]: > 160 µM
IC50 (ARPE-19 cells [5]; [8]): > 80 µM
ROS scavenging potency relative to natural homologue (phloroglucinol) (ARPE-19 cells [5]; ratio of ROS IC50): nine times less potent

Compound: Oc1cc(O)cc(O)c1 [Phloroglucinol, phloroglucinol, reference compound]
CC50 at 24 h [4]: > 160 µM
IC50 (ARPE-19 cells [5]; [8]): 10.2 ± 3.44 µM

Compound: Oc1cc(O)cc(/C=C/c2ccc(O)c(O)c2)c1 [piceatannol]
Protection against photo-oxidized A2E (in words, compared with 88–89% cell viability) (ARPE-19 cells [7]): Same level of protection

Further lines, with some results ahead:

melting point: 180 °C
IC50 (ARPE-19 cells [5]; 1 h pre-incubation): 61.7 ± 7.43 µM
IC50 (ARPE-19 cells [5]; [8]): ~60 µM
Compound: CC/C=C\C/C=C\C/C=C\CCCCCCCC(=O)Oc1c(-c2ccc(O)c(O)c2)oc2cc(O)cc(O)c2c1=O [Quer-3-ALA (14), quercetin-3-ALA]
CC50 at 24 h [4]: 69.4 ± 3.46 µM

IC50 (ARPE-19 cells [5]; 1 h pre-incubation): 59.4 ± 18.8 µM
IC50 (ARPE-19 cells [5]; [8]): ~60 µM
Compound: CC/C=C\C/C=C\C/C=C\C/C=C\C/C=C\C/C=C\CCC(=O)Oc1c(-c2ccc(O)c(O)c2)oc2cc(O)cc(O)c2c1=O [Quer-3-DHA (15)]
Toxicity in ARPE-19 cells (in words) (ARPE-19 cells [3]; 24 h): slight toxicity
CC50 at 24 h [4]: 134 ± 8.09 µM

IC50 (ARPE-19 cells [5]; 1 h pre-incubation): 52.2 ± 10.8 µM
IC50 (ARPE-19 cells [5]; [8]): ~60 µM
Compound: CCCCC/C=C\C/C=C\CCCCCCCC(=O)Oc1c(-c2ccc(O)c(O)c2)oc2cc(O)cc(O)c2c1=O [Quer-3-LA (13), quercetin-3-LA]
IC50 (ARPE-19 cells [6]; Homo sapiens, ARPE-19): 8.24 µM
Decrease of the toxic effect of A2E (ARPE-19 cells [6]): 50%
Cells protected from photo-oxidized A2E (ARPE-19 cells [6]): up to 90%
Maximum cell viability under photo-oxidized A2E (ARPE-19 cells [6]): 88–89%
Potency against photo-oxidized A2E relative to natural quercetin (ARPE-19 cells [6]): three times more potent
Cell survival in cytotoxicity assay (ARPE-19 cells [3]; at 80 µM, Figure 8, 100% = non-treated control cells): 150%
Toxicity in ARPE-19 cells (in words) (ARPE-19 cells [3]; 24 h): no toxicity was observed up to 160 µM
CC50 at 24 h [4]: > 160 µM

melting point: 235.8 °C
IC50 (ARPE-19 cells [5]; [8]): 9.44 ± 2.37 µM
Compound: CC/C=C\C/C=C\C/C=C\CCCCCCCC(=O)Oc1cc(O)c2c(=O)c(O)c(-c3ccc(O)c(O)c3)oc2c1 [Quer-7-ALA (18), quercetin-7-ALA]
IC50 (ARPE-19 cells [6]; Homo sapiens, ARPE-19): 8.45 µM
Decrease of the toxic effect of A2E (ARPE-19 cells [6]): 50%
Cells protected from photo-oxidized A2E (ARPE-19 cells [6]): up to 90%
Maximum cell viability under photo-oxidized A2E (ARPE-19 cells [6]): 88–89%
Potency against photo-oxidized A2E relative to natural quercetin (ARPE-19 cells [6]): three times more potent
CC50 at 24 h [4]: > 160 µM
viability at 24 h ([4]; up to 160 µM, Figure 8, 100% = non-treated control cells): 128%
ROS scavenging potency relative to analogue 3-ALA (ARPE-19 cells [5]; ratio of ROS IC50): 6 times

IC50 (ARPE-19 cells [5]; [8]): 6.82 ± 0.73 µM
Compound: O=c1c(O)c(-c2ccc(O)c(O)c2)oc2cc(O)cc(O)c12 [Quercetin, quercetin, reference compound]
IC50 (ARPE-19 cells [6]; Homo sapiens, ARPE-19): 23.9 µM
viability at 40 µM (ARPE-19 cells [6]; Homo sapiens, ARPE-19, at 40 µM, read-out: Maximum cell viability under photo-oxidized A2E): 78%
Toxicity in ARPE-19 cells (in words) (ARPE-19 cells [3]; 24 h): moderate toxicity
CC50 at 24 h [4]: 111 ± 4.92 µM

IC50 (ARPE-19 cells [5]; [8]): > 80 µM
Compound: CCCCC/C=C\C/C=C\CCCCCCCC(=O)Oc1ccc(/C=C/c2cc(O)cc(O)c2)cc1 [Resv-4′-LA (8), resveratrol-4′-LA]
CC50 at 24 h [4]: > 160 µM
ROS scavenged (ARPE-19 cells [5]; at 80 µM, Figure S1): 40%

IC50 (ARPE-19 cells [5]; [8]): 7.4 ± 0.51 µM
Compound: Oc1ccc(C=Cc2cc(O)cc(O)c2)cc1 [Resveratrol, 3,4′,5-trihydroxystilbene, reference compound]
Protection against photo-oxidized A2E (in words, compared with 88–89% cell viability) (ARPE-19 cells [7]): Same level of protection
CC50 at 24 h [4]: > 160 µM
